For one assay, the target named is T1, peptide carrier (Homo sapiens, UniProt P46059).
T1 construct: endogenous in cells; host or cells: Caco-2 cells
T1 sequence (P46059 1-708): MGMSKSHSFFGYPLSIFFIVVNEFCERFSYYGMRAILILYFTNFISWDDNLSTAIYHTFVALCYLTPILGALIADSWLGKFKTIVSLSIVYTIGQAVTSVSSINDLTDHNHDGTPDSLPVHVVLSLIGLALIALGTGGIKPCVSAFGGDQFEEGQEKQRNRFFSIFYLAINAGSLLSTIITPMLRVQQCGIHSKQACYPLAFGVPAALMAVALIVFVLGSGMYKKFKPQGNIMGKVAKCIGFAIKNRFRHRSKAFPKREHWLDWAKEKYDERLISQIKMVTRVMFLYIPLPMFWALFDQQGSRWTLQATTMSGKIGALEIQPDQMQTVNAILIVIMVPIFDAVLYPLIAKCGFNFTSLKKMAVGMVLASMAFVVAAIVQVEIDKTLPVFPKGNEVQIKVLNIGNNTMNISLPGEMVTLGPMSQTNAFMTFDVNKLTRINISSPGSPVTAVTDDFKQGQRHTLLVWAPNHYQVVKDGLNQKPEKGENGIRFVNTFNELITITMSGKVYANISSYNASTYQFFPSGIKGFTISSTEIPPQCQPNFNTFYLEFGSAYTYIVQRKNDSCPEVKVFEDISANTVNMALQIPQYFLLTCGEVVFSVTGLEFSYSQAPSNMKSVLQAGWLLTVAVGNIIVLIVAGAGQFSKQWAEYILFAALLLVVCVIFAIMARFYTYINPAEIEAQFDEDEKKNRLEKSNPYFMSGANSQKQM
Nature of the assay: Inhibition of glycyl-sarcosine transport via the peptide carrier in Caco-2 cells. The assay is classed as cell-based. The source says: Carnityl-alanyl-alanine (CAA) is a peptide derivative of carnitine. In this experiment, the ability of CAA to compete with glycyl-sarcosine for transport via the peptide carrier was studied in Caco-2 cells. These cells are a good model system for the human intestine and they express the peptide carrier as does the human intestine. Glycyl-sarcosine is a standard substrate for the peptide carrier. If CAA is taken up by the peptide carrier it is expected to compete with glycyl-sarcosine for transport via the carrier and thus inhibit the transport.

Assay [1] deals with T2, peptide carrier from human intestine (Homo sapiens, UniProt P46059).
T2 construct: expressed in transfected cells; host or cells: Xenopus oocytes injected with peptide transporter mRNA
T2 sequence (P46059 1-708): T1 sequence (P46059 1-708)
The experiment in a line: Charge transfer in Xenopus oocytes expressing the peptide carrier from human intestine (electrophysiological approach). The assay is classed as cell-based. As to conditions: Xenopus oocytes expressing human intestinal peptide carrier; exposure to 10 mM. An excerpt:
In this experiment, Xenopus (frog) oocytes which were made to express the peptide carrier from human intestine by injection of its peptide transporter mRNA were used to study the transport of CAA via the carrier. The peptide carrier uses the energy from a proton gradient and peptide transport via the carrier leads to a transfer of positive charge into the oocytes. This charge transfer can be monitored using the electrophysiological approach. If CAA is transported via the peptide carrier, exposure of the oocytes to CAA is expected to result in the transfer of positive charge.

Non-standard residues stand in square brackets, D forms with d. Residues, ends and D or L forms follow the SMILES beside them. Sar = CNCC(=O)O

On to `C[N+](C)(C)CC(O)CC(=O)[O-]` (stereo not drawn) [Free carnitine, Carnitine], for which the “inhibition of glycyl-sarcosine transport (in words)” value on peptide carrier (Caco-2 cells, under similar conditions) was “does not inhibit”.
Regarding `CN(CC(=O)O)C(=O)CN` [glycyl-sarcosine, Glycyl-sarcosine, reference compound] (H-Gly-[Sar]-OH), the “charge transfer into oocytes (in words)” value in assay [1] is recorded as “charge transfer found”.
As for Carnityl-alanyl-alanine [CAA], the “inhibition of the transport of glycylsarcosine” value on peptide carrier (Caco-2 cells, at 10 mM) was 35%; against peptide carrier (Caco-2 cells, at 20 mM) it was 80%. Besides, the “affinity for the intestinal peptide carrier” value at peptide carrier (concluded from the Caco-2 and oocyte experiments) is on record as “millimolar range”. Moreover, the “charge transfer into oocytes (in words)” value in assay [1] is recorded as “induced charge transfer”.
